Test results published in PubChem BioAssay (NCI).
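Results reflect a 48-hour exposure of cells in 96-well plates to compound at five concentrations. TGI denotes the concentration required for complete inhibition of growth.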

Each compound was assayed on IGROV1 ovarian (assay: growth of human tumour cells (NCI), 48 h).

| Structure (SMILES) | TGI [µM] |
| --- | --- |
| Cc1cc(=O)[nH]c(NNC(C#N)c2ccc(O)cc2)n1 (stereo unspecified) | > 100 |
| O=C(CSc1nnc(Cc2ccccc2)o1)Nc1cccc([N+](=O)[O-])c1 | > 100 |
| O=C(CC(=O)n1nc(-c2ccccc2)c(N=Nc2ccc(Cl)cc2)c1-c1ccccc1)Nc1cccc(Cl)c1 | > 100 |
| O=c1[nH]nc(-c2cccc(Br)c2)[nH]1 | > 100 |
| COc1cccc(C2c3cc4c(cc3OC(N3CCCC3)C2C)OCO4)c1 (stereo unspecified) | 38.7 |
| CN(C)/N=C(\CCN1CCCC1)CC(c1ccccc1)c1c(O)c2ccccc2oc1=O (stereo unspecified) | > 100 |
| O=P(c1ccccc1)(c1ccccc1)C(NCc1ccccc1)c1ccc(F)cc1 (stereo unspecified) | 33.4 |
| COc1cc2c(c(OC)c1OC)-c1ccc(SC)c(=O)cc1C(CC(=O)Oc1ccc([N+](=O)[O-])cc1)C2 (stereo unspecified) | > 49.2 |
| CC(=O)NC(CCCN)C(=O)NCc1ccccc1 (stereo unspecified) | > 100 |
| Cc1cc(O)c(/C=N/C(=S)NCCc2ccccc2)c(=O)o1 | > 100 |
| Cc1ccccc1Nc1cn(COCc2ccccc2)c(=O)[nH]c1=O | > 100 |
| COc1ccc(-c2c(C(C)=O)c(-c3ccccc3)n(C3OC(COC(C)=O)C(OC(C)=O)C(OC(C)=O)C3OC(C)=O)c(=S)c2C#N)cc1 (stereo unspecified) | > 100 |
| CO/N=C(\C(=O)Nc1cncs1)c1csc(NC(c2ccccc2)(c2ccccc2)c2ccccc2)n1 | > 10 |
| Cc1oc2nc(N(C)C)nc(Cl)c2c1C | > 100 |
| Cn1c(=O)c2c(nc(NCCCCl)n2CC(=O)NCCCCl)n(C)c1=O | > 100 |
| CCCCCCCCCCCCCCCCCc1cccc(OCOCCOC)c1CO | > 100 |
| O=C1CCC(c2ccccc2)C(O)(C(=O)O)C1 (stereo unspecified) | > 100 |
| CC(=O)O[C@@H]1C=C(C)[C@H](CBr)O[C@@]2(C)CC[C@H](Br)C(C)(C)[C@H]12 | > 100 |
| COc1ccc2c(c1)OCc1c-2oc2ccccc2c1=O | > 100 |
| CCCCn1c(C)c(C(=O)OCC)c2cc(OCc3ccc(C(=O)Nn4c(C)ccc4C)cc3)c(Br)cc21 | > 100 |
| N#CCCN(CCC#N)c1ccc(C(=O)NN)cc1 | > 100 |
| CC1=CC(=O)NP(=O)(Oc2ccc(C)cc2)N1 (stereo unspecified) | > 100 |
| S=C(/N=c1/sc(Nc2ccccc2)nc2sc3c(c12)CCCC3)Nc1ccccc1 | > 62.5 |
| CC(=O)OC1CC2OC(Cc3ccccc32)O1 (stereo unspecified) | > 100 |
| C/C(=N\NC(=S)N1CC2CCC(CC2)C1)c1ccncn1 | 3.78 |
| COC(=O)CCC(=O)NC1c2cccc3cccc(c23)Cn2c(=O)n(C)c(=O)n21 (stereo unspecified) | > 100 |
| CCOC(=O)CC(NC(=O)c1nc[nH]c1[N+](=O)[O-])C(=O)OCC (stereo unspecified) | > 100 |
| N#[O+].O=S(=O)([O-])[O-].[NH2-].[NH2-].[NH2-].[NH2-].[NH2-].[Ru+5] | > 100 |

Each compound was assayed on EKVX NSCLC (assay: growth of human tumour cells (NCI), 48 h).

| Structure (SMILES) | TGI [µM] |
| --- | --- |
| O=C1c2ccccc2S[C@@H](O)[C@@H]2CCCN12 | > 100 |
| O=C(CC(=O)n1nc(-c2ccccc2)c(N=Nc2ccc(Cl)cc2)c1-c1ccccc1)Nc1cccc(Cl)c1 | > 100 |
| O=c1[nH]nc(-c2cccc(Br)c2)[nH]1 | 79.1 |
| COc1cccc(C2c3cc4c(cc3OC(N3CCCC3)C2C)OCO4)c1 (stereo unspecified) | 94.1 |
| CN(C)/N=C(\CCN1CCCC1)CC(c1ccccc1)c1c(O)c2ccccc2oc1=O (stereo unspecified) | > 100 |
| O=P(c1ccccc1)(c1ccccc1)C(NCc1ccccc1)c1ccc(F)cc1 (stereo unspecified) | 25.4 |
| COc1cc2c(c(OC)c1OC)-c1ccc(SC)c(=O)cc1C(CC(=O)Oc1ccc([N+](=O)[O-])cc1)C2 (stereo unspecified) | > 100 |
| CC(=O)NC(CCCN)C(=O)NCc1ccccc1 (stereo unspecified) | > 100 |
| Cc1cc(O)c(/C=N/C(=S)NCCc2ccccc2)c(=O)o1 | > 100 |
| Cc1nnc([C@@]2(C)CC[C@H]3[C@@H](CC=C4C[C@@H](O)CC[C@@]43C)[C@@H]2CC#N)o1 | > 100 |
| Cc1ccccc1Nc1cn(COCc2ccccc2)c(=O)[nH]c1=O | > 100 |
| COc1ccc(-c2c(C(C)=O)c(-c3ccccc3)n(C3OC(COC(C)=O)C(OC(C)=O)C(OC(C)=O)C3OC(C)=O)c(=S)c2C#N)cc1 (stereo unspecified) | > 100 |
| CO/N=C(\C(=O)Nc1cncs1)c1csc(NC(c2ccccc2)(c2ccccc2)c2ccccc2)n1 | > 10 |
| Cc1oc2nc(N(C)C)nc(Cl)c2c1C | > 100 |
| Cn1c(=O)c2c(nc(NCCCCl)n2CC(=O)NCCCCl)n(C)c1=O | > 100 |
| CCCCCCCCCCCCCCCCCc1cccc(OCOCCOC)c1CO | > 100 |
| O=C1CCC(c2ccccc2)C(O)(C(=O)O)C1 (stereo unspecified) | > 100 |
| CC(=O)O[C@@H]1C=C(C)[C@H](CBr)O[C@@]2(C)CC[C@H](Br)C(C)(C)[C@H]12 | > 100 |
| COc1ccc2c(c1)OCc1c-2oc2ccccc2c1=O | > 100 |
| CCCCn1c(C)c(C(=O)OCC)c2cc(OCc3ccc(C(=O)Nn4c(C)ccc4C)cc3)c(Br)cc21 | > 100 |
| N#CCCN(CCC#N)c1ccc(C(=O)NN)cc1 | > 100 |
| CC1=CC(=O)NP(=O)(Oc2ccc(C)cc2)N1 (stereo unspecified) | > 100 |
| S=C(/N=c1/sc(Nc2ccccc2)nc2sc3c(c12)CCCC3)Nc1ccccc1 | > 62.5 |
| CC(=O)OC1CC2OC(Cc3ccccc32)O1 (stereo unspecified) | > 100 |
| C/C(=N\NC(=S)N1CC2CCC(CC2)C1)c1ccncn1 | 4.21 |
| COC(=O)CCC(=O)NC1c2cccc3cccc(c23)Cn2c(=O)n(C)c(=O)n21 (stereo unspecified) | > 100 |
| CCOC(=O)CC(NC(=O)c1nc[nH]c1[N+](=O)[O-])C(=O)OCC (stereo unspecified) | > 100 |
| N#[O+].O=S(=O)([O-])[O-].[NH2-].[NH2-].[NH2-].[NH2-].[NH2-].[Ru+5] | > 100 |
